Read-outs that look alike come from different tables or passages of the source.
Columns and labels:
[1] = assay type: physicochemical; conditions: for ThT Cat. / ThT-Fluorescence (categorical): ThT-active if fluorescence at least twice the control
Summary of the method: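 Preformed peptide fibrils (1 mg/mL) mixed with 50 µM ThT in PBS, 15 min at RT, fluorescence ex 440/em 488 nm versus PBS blank, triplicates. Zeta potential: peptides at 1 mg/mL in PBS pH 7.4, aged 1 d at RT, diluted in 1 mM KCl, Smoluchowski from electrophoretic mobility.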

[2] = Turbidity, derived count rate of scattered light; assay type: physicochemical; conditions: for Count Rate / kcps: derived count rate of scattered light at 633 nm, 173°, from zeta-potential measurement, 0.1 mg/mL in 1 mM KCl after 1 d at 1 mg/mL in PBS, turbidity / microscopic aggregation, mean of triplicate
Summary of the method: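 Samples: 1 mg/mL in PBS pH 7.4 (from DMSO), 1 d at RT, then diluted in 1 mM KCl immediately before measurement. Triplicates, two independent runs averaged.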

[3] = Log10 of derived count rate of scattered light (turbidity)
[4] = turbidity, Log10 of derived count rate of scattered light, Figure 3A source data
[5] = turbidity, log10 of derived count rate of scattered light
[6] = ThT fluorescence category, 1 if Rel. ThT >2
[7] = log10 of derived count rate of scattered light (turbidity)
[8] = logarithm of count rate in kcps

| Substance | Tht category (> 2 to blank = +) ([1]; Fig S10 panel D) | ThT Cat. ([1]; Fig S10 panel E) | ThT Cat, ([1]; ThT category, 1 if Rel. ThT >2) | ThT Cat. ([1]; ThT category, 1 if Rel. ThT >2) | ThT Cat. / ThT-Fluorescence (categorical) [1] | Log10 Count Rate [2, 3] | Count Rate / kcps [2] [kcps] | Log10 Count Rate [2, 4] | Log10 Count Rate [2, 5] | ThT Cat. [1, 6] | Log10 Count Rate [2, 7] | Tht category (> 2 to blank = +) ([1]; FigS12 panel A) | ThT Cat, ([1]; FigS12 panel B) | Rel. ThT ([1]; n-fold ThT fluorescence vs control (PBS, 10% DMSO), 4 µL 1 mg/mL fibrils + 20 µL 50 µM ThT, 15 min RT, ex 440 / em 488 nm, triplicate) | Log10 Count Rate [2, 8] | Zeta Count Rate ([2]; peptides with TEM 2cat 0) [kcp] | Zeta Count Rate ([2]; mean of the 3 replicates) [kcps] | Zeta Count Rate ([2]; replicate 1) [kcps] | Zeta Count Rate ([2]; replicate 2) [kcps] | Zeta Count Rate ([2]; replicate 3) [kcps] |
| --- | --- | --- | --- | --- | --- | --- | --- | --- | --- | --- | --- | --- | --- | --- | --- | --- | --- | --- | --- | --- |
| QCKFKQFFNM | 1 (ThT. Cat is 1, if Rel. ThT >2) | 1 (ThT. Cat is 1, if Rel. ThT >2) | 1 (ThT. Cat is 1, if Rel. ThT >2) | 1 (ThT. Cat is 1, if Rel. ThT >2) | 1 (ThT. Cat is 1, if Rel. ThT >2) | 4.016 | 10385 | 4.016 | 4.016 |  |  |  |  |  |  |  |  |  |  |  |
| CSISIQINM | 1 (ThT. Cat is 1, if Rel. ThT >2) | 1 (ThT. Cat is 1, if Rel. ThT >2) | 1 (ThT. Cat is 1, if Rel. ThT >2) |  | 1 (ThT. Cat is 1, if Rel. ThT >2) | 3.517 | 3291 | 3.517 |  | 1 (ThT. Cat is 1, if Rel. ThT >2) | 3.517 |  |  |  |  |  |  |  |  |  |
| KAKAQANM | 0 (ThT-inactive (N-Fold <2)) |  | 0 (ThT-inactive (N-Fold <2)) |  | 0 (ThT-inactive (N-Fold <2)) | 1.628 | 43 | 1.628 |  | 0 (ThT-inactive (N-Fold <2)) | 1.628 | 0 (ThT-inactive (N-Fold <2)) | 0 (ThT-inactive (N-Fold <2)) | 1.1 | 1.6 |  |  |  |  |  |
| EIEIQINMWQ | 1 (ThT. Cat is 1, if Rel. ThT >2) | 1 (ThT. Cat is 1, if Rel. ThT >2) | 1 (ThT. Cat is 1, if Rel. ThT >2) | 1 (ThT. Cat is 1, if Rel. ThT >2) | 1 (ThT. Cat is 1, if Rel. ThT >2) | 3.102 | 1264 | 3.102 |  |  | 3.102 |  |  |  |  | 1264 |  |  |  |  |
| IKVAVKIKIQINM | 0 (ThT-inactive (N-Fold <2)) |  | 0 (ThT-inactive (N-Fold <2)) | 0 (ThT-inactive (N-Fold <2)) | 0 (ThT-inactive (N-Fold <2)) | 3.686 | 4848 | 3.686 |  |  | 3.686 |  |  |  |  |  |  |  |  |  |
| KIKIKIKIWW | 1 (ThT. Cat is 1, if Rel. ThT >2) | 1 (ThT. Cat is 1, if Rel. ThT >2) | 1 (ThT. Cat is 1, if Rel. ThT >2) |  | 1 (ThT. Cat is 1, if Rel. ThT >2) | 3.975 | 9436 | 3.975 |  | 1 (ThT. Cat is 1, if Rel. ThT >2) | 3.975 |  |  |  |  | 9436 |  |  |  |  |
| KIKIKIKI | 1 (ThT. Cat is 1, if Rel. ThT >2) |  | 1 (ThT. Cat is 1, if Rel. ThT >2) |  | 1 (ThT. Cat is 1, if Rel. ThT >2) | 2.191 | 155 | 2.191 |  | 1 (ThT. Cat is 1, if Rel. ThT >2) | 2.191 | 1 (ThT. Cat is 1, if Rel. ThT >2) | 1 (ThT. Cat is 1, if Rel. ThT >2) |  |  |  |  |  |  |  |
| ILKNLSRSRKIKIQINMWQ | 1 (ThT. Cat is 1, if Rel. ThT >2) |  | 1 (ThT. Cat is 1, if Rel. ThT >2) | 1 (ThT. Cat is 1, if Rel. ThT >2) | 1 (ThT. Cat is 1, if Rel. ThT >2) | 2.486 | 307 | 2.486 |  |  | 2.486 |  |  |  |  |  |  |  |  |  |
| CKIKIQINMW | 0 (ThT-inactive (N-Fold <2)) |  | 0 (ThT-inactive (N-Fold <2)) | 0 (ThT-inactive (N-Fold <2)) | 0 (ThT-inactive (N-Fold <2)) | 3.692 | 4915 | 3.692 |  |  | 3.692 |  |  |  |  |  |  |  |  |  |
| QCKIKIQINM | 1 (ThT. Cat is 1, if Rel. ThT >2) | 1 (ThT. Cat is 1, if Rel. ThT >2) | 1 (ThT. Cat is 1, if Rel. ThT >2) | 1 (ThT. Cat is 1, if Rel. ThT >2) | 1 (ThT. Cat is 1, if Rel. ThT >2) | 3.979 | 9524 | 3.979 | 3.979 |  |  |  |  |  |  |  |  |  |  |  |
| QCKFKQFF | 1 (ThT. Cat is 1, if Rel. ThT >2) |  | 1 (ThT. Cat is 1, if Rel. ThT >2) | 1 (ThT. Cat is 1, if Rel. ThT >2) | 1 (ThT. Cat is 1, if Rel. ThT >2) | 2.353 | 225 | 2.353 | 2.353 |  |  | 1 (ThT. Cat is 1, if Rel. ThT >2) | 1 (ThT. Cat is 1, if Rel. ThT >2) |  |  |  |  |  |  |  |
| KIKIQIW | 1 (ThT. Cat is 1, if Rel. ThT >2) |  | 1 (ThT. Cat is 1, if Rel. ThT >2) | 1 (ThT. Cat is 1, if Rel. ThT >2) | 1 (ThT. Cat is 1, if Rel. ThT >2) | 2.161 | 145 | 2.161 |  |  | 2.161 |  |  |  |  |  |  |  |  |  |
| CKFKQFF | 0 (ThT-inactive (N-Fold <2)) | 0 (ThT-inactive (N-Fold <2)) | 0 (ThT-inactive (N-Fold <2)) | 0 (ThT-inactive (N-Fold <2)) | 0 (ThT-inactive (N-Fold <2)) | 0.4094 | 3 | 0.4094 | 0.4094 |  |  | 0 (ThT-inactive (N-Fold <2)) | 0 (ThT-inactive (N-Fold <2)) |  | 0.4099 |  |  |  |  |  |
| CSISIQI | 1 (ThT. Cat is 1, if Rel. ThT >2) | 1 (ThT. Cat is 1, if Rel. ThT >2) | 1 (ThT. Cat is 1, if Rel. ThT >2) |  | 1 (ThT. Cat is 1, if Rel. ThT >2) | 4.01 | 10241 | 4.01 |  | 1 (ThT. Cat is 1, if Rel. ThT >2) | 4.01 | 1 (ThT. Cat is 1, if Rel. ThT >2) | 1 (ThT. Cat is 1, if Rel. ThT >2) |  | 4.01 |  |  |  |  |  |
| RGDCKIKIQINM | 0 (ThT-inactive (N-Fold <2)) |  | 0 (ThT-inactive (N-Fold <2)) |  | 0 (ThT-inactive (N-Fold <2)) | 3.2102 | 1623 | 3.2102 |  | 0 (ThT-inactive (N-Fold <2)) | 3.2102 |  |  |  |  |  |  |  |  |  |
| CEIEIQINMWQ | 1 (ThT. Cat is 1, if Rel. ThT >2) | 1 (ThT. Cat is 1, if Rel. ThT >2) | 1 (ThT. Cat is 1, if Rel. ThT >2) |  | 1 (ThT. Cat is 1, if Rel. ThT >2) | 3.196 | 1570 | 3.196 |  | 1 (ThT. Cat is 1, if Rel. ThT >2) | 3.196 |  |  |  |  |  |  |  |  |  |
| HHHHKAKAKAKAYYYY | 0 (ThT-inactive (N-Fold <2)) |  | 0 (ThT-inactive (N-Fold <2)) |  | 0 (ThT-inactive (N-Fold <2)) | 2.382 | 241 | 2.382 |  | 0 (ThT-inactive (N-Fold <2)) | 2.382 | 0 (ThT-inactive (N-Fold <2)) | 0 (ThT-inactive (N-Fold <2)) |  |  |  |  |  |  |  |
| KIKIQIC | 1 (ThT. Cat is 1, if Rel. ThT >2) | 1 (ThT. Cat is 1, if Rel. ThT >2) | 1 (ThT. Cat is 1, if Rel. ThT >2) |  | 1 (ThT. Cat is 1, if Rel. ThT >2) | 2.992 | 981 | 2.992 |  | 1 (ThT. Cat is 1, if Rel. ThT >2) | 2.992 |  |  |  | 2.992 |  | 980.7 | 1115.50 | 1268.60 | 557.90 |
| KFKFQFNM | 0 (ThT-inactive (N-Fold <2)) | 0 (ThT-inactive (N-Fold <2)) | 0 (ThT-inactive (N-Fold <2)) | 0 (ThT-inactive (N-Fold <2)) | 0 (ThT-inactive (N-Fold <2)) | 2.12 | 132 | 2.12 | 2.12 |  |  |  |  |  |  |  |  |  |  |  |
| RGDKIKIQINMC |  |  | 0 (ThT-inactive (N-Fold <2)) |  | 0 (ThT-inactive (N-Fold <2)) | 3.147 | 1404 | 3.147 |  | 0 (ThT-inactive (N-Fold <2)) | 3.147 |  |  |  |  |  |  |  |  |  |
